# From patent US20080176862A1, “New Compounds 617” (ASTRAZENECA AB, priority 2006, published 2008)
# Counter-ions that a name gives are not always drawn.
# Target: T1, human β-Secretase (soluble part, AA1-AA460; sBACE-Fc) (Homo sapiens, UniProt P56817)
# T1 construct: The soluble part of the human β-Secretase (AA1-AA460) was cloned into the ASP2-Fc10-1-IRES-GFP-neoK mammalian expression vector; made in house
# Assay: TR-FRET assay
# Type: biochemical
# Details: substrate (Europium)CEVNLDAEFK(Qsy7) 100 nM, pH 4.5, 15 min at RT; read-out: IC50 (nM) in TR-FRET assay
# T1 sequence (P56817 22-460): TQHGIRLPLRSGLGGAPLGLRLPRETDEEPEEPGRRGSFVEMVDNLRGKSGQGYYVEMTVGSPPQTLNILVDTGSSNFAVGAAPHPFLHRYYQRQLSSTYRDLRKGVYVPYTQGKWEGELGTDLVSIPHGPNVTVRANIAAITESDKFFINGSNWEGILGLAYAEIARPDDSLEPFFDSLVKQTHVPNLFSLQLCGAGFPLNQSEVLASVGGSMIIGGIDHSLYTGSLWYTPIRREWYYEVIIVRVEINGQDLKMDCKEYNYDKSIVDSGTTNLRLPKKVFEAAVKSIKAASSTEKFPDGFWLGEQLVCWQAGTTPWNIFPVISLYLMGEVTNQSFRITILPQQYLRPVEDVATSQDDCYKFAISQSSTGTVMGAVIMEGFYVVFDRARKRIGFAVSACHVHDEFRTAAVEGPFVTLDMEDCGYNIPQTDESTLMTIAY
row,SMILES,IC50
1,"CN1C(=O)C(c2ccc(OS(=O)(=O)c3cn(C)cn3)cc2)(c2ccc(F)c(-c3cccnc3)c2)N=C1N (stereo not drawn) [Example 287, 4-[2-Amino-4-(4-fluoro-3-pyridin-3-ylphenyl)-1-methyl-5-oxo-4,5-dihydro-1H-imidazol-4-yl]phenyl 1-methyl-1H-imidazole-4-sulfonate]",1020 nM
2,"CN1C(=O)C(c2ccc(OS(C)(=O)=O)cc2)(c2ccc(F)c(-c3cncs3)c2)N=C1N (stereo not drawn) [Example 188, 4-{2-Amino-4-[4-fluoro-3-(1,3-thiazol-5-yl)phenyl]-1-methyl-5-oxo-4,5-dihydro-1H-imidazol-4-yl}phenyl methanesulfonate hydrochloride]",379 nM
3,"CN1C(=O)C(c2cccc(OS(C)(=O)=O)c2)(c2ccc(F)c(-c3cncc(F)c3)c2)N=C1N (stereo not drawn) [Example 87, 3-{2-Amino-4-[4-fluoro-3-(5-fluoropyridin-3-yl)phenyl]-1-methyl-5-oxo-4,5-dihydro-1H-imidazol-4-yl}phenylmethanesulfonate]",494 nM
4,"COc1ccc(C#N)c(-c2cccc(C3(c4cccc(OS(C)(=O)=O)c4)N=C(N)N(C)C3=O)c2)c1 (stereo not drawn) [Example 176, 3-[2-Amino-4-(2′-cyano-5′-methoxybiphenyl-3-yl)-1-methyl-5-oxo-4,5-dihydro-1H-imidazol-4-yl]phenyl methanesulfonate hydrochloride]",148 nM
5,"CN1C(=O)C(c2ccc(F)c(-c3cc(Cl)cc(OS(C)(=O)=O)c3)c2)(C2CCOCC2)N=C1N (stereo not drawn) [Example 193, 5′-[2-Amino-1-methyl-5-oxo-4-(tetrahydro-2H-pyran-4-yl)-4,5-dihydro-1H-imidazol-4-yl]-5-chloro-2′-fluorobiphenyl-3-yl methanesulfonate hydrochloride]",1180 nM
6,"COc1ccc(OC(F)(F)F)c(-c2cc(C3(c4ccc(OS(C)(=O)=O)cc4)N=C(N)N(C)C3=O)ccc2F)c1 (stereo not drawn) [Example 168, 4-{2-Amino-4-[6-fluoro-5′-methoxy-2′-(trifluoromethoxy)biphenyl-3-yl]-1-methyl-5-oxo-4,5-dihydro-1H-imidazol-4-yl}phenyl methanesulfonate]",349 nM
7,"CN1C(=O)C(c2cccc(OS(=O)(=O)C(F)(F)F)c2)(c2cccc(C3=CCCC3)c2)N=C1N (stereo not drawn) [Example 197, 3-[2-Amino-4-(3-cyclopent-1-en-1-ylphenyl)-1-methyl-5-oxo-4,5-dihydro-1H-imidazol-4-yl]phenyl trifluoromethanesulfonate hydrochloride]",721 nM
8,"COc1ccnc(-c2cc(C3(c4ccc(OS(C)(=O)=O)cc4)N=C(N)N(C)C3=O)ccc2F)n1 (stereo not drawn) [Example 6, 4-{2-Amino-4-[4-fluoro-3-(4-methoxypyrimidin-2-yl)phenyl]-1-methyl-5-oxo-4,5-dihydro-1H-imidazol-4-yl}phenyl methanesulfonate 0.25 acetate]",834 nM
9,"CN1C(=O)C(c2ccc(OS(=O)(=O)C(F)(F)F)cc2)(c2ccc(F)c(-c3cncc(C#N)c3)c2)N=C1N (stereo not drawn) [Example 144, 4-{2-Amino-4-[3-(5-cyanopyridin-3-yl)-4-fluorophenyl]-1-methyl-5-oxo-4,5-dihydro-1H-imidazol-4-yl}phenyl trifluoromethanesulfonate 0.5 acetate]",321 nM
10,"CN1C(=O)C(c2cccc(OS(=O)(=O)c3ccc4c(c3)CCC4)c2)(c2ccc(F)c(-c3cccnc3)c2)N=C1N (stereo not drawn) [Example 283, 3-[2-Amino-4-(4-fluoro-3-pyridin-3-ylphenyl)-1-methyl-5-oxo-4,5-dihydro-1H-imidazol-4-yl]phenyl indane-5-sulfonate 0.25 acetate]",30 nM
11,"CN1C(=O)C(c2ccc(OS(=O)(=O)c3ccc4c(c3)oc(=O)n4C)cc2)(c2ccc(F)c(-c3cccnc3)c2)N=C1N (stereo not drawn) [Example 284, 4-[2-Amino-4-(4-fluoro-3-pyridin-3-ylphenyl)-1-methyl-5-oxo-4,5-dihydro-1H-imidazol-4-yl]phenyl 3-methyl-2-oxo-2,3-dihydro-1,3-benzoxazole-6-sulfonate 0.5acetate]",60 nM
12,"CCCS(=O)(=O)Oc1cccc(C2(c3ccc(F)c(-c4cc(Cl)cnc4F)c3)N=C(N)N(C)C2=O)c1 (stereo not drawn) [Example 95, 3-{2-Amino-4-[3-(5-chloro-2-fluoropyridin-3-yl)-4-fluorophenyl]-1-methyl-5-oxo-4,5-dihydro-1H-imidazol-4-yl}phenyl propane-1-sulfonate]",352 nM
13,"Cc1noc(C)c1S(=O)(=O)Oc1ccc(C2(c3ccc(F)c(-c4cncnc4)c3)N=C(N)N(C)C2=O)cc1 (stereo not drawn) [Example 280, 4-[2-amino-4-(4-fluoro-3-pyrimidin-5-ylphenyl)-1-methyl-5-oxo-4,5-dihydro-1H-imidazol-4-yl]phenyl 3,5-dimethylisoxazole-4-sulfonate]",234 nM
14,"CN1C(=O)C(c2cccc(OS(C)(=O)=O)c2)(c2ccc(F)c(-c3cc(Cl)cc(Cl)c3)c2)N=C1N (stereo not drawn) [Example 89, 3-[2-Amino-4-(3′,5′-dichloro-6-fluorobiphenyl-3-yl)-1-methyl-5-oxo-4,5-dihydro-1H-imidazol-4-yl]phenyl methanesulfonate]",207 nM
15,"COc1cccc(-c2cc(C3(c4cccc(OS(C)(=O)=O)c4)N=C(N)N(C)C3=O)ccc2F)c1 (stereo not drawn) [Example 93, 3-[2-Amino-4-(6-fluoro-3′-methoxybiphenyl-3-yl)-1-methyl-5-oxo-4,5-dihydro-1H-imidazol-4-yl]phenyl methanesulfonate]",146 nM
16,"COc1cccc(-c2cc(C3(c4cccc(OS(=O)(=O)N(C)C)c4)N=C(N)N(C)C3=O)ccc2F)c1 (stereo not drawn) [Example 112, 3-[2-Amino-4-(6-fluoro-3′-methoxybiphenyl-3-yl)-1-methyl-5-oxo-4,5-dihydro-1H-imidazol-4-yl]phenyl dimethylsulfamate]",150 nM
17,"CN1C(=O)C(c2cccc(OS(=O)(=O)c3ccc4c(c3)CCC4)c2)(c2ccc(F)c(Br)c2)N=C1N (stereo not drawn) [Example 228, 3-[2-Amino-4-(3-bromo-4-fluorophenyl)-1-methyl-5-oxo-4,5-dihydro-1H-imidazol-4-yl]phenyl indane-5-sulfonate]",788 nM
18,"CN1C(=O)C(c2cccc(OS(=O)(=O)c3ccccc3)c2)(c2ccc(F)c(-c3cncnc3)c2)N=C1N (stereo not drawn) [Example 133, 3-[2-Amino-4-(4-fluoro-3-pyrimidin-5-ylphenyl)-1-methyl-5-oxo-4,5-dihydro-1H-imidazol-4-yl]phenyl benzenesulfonate hydrochloride]",33 nM
19,"CCCS(=O)(=O)Oc1cccc(C2(c3ccc(F)c(-c4cc(Cl)cc(Cl)c4)c3)N=C(N)N(C)C2=O)c1 (stereo not drawn) [Example 100, 3-[2-Amino-4-(3′,5′-dichloro-6-fluorobiphenyl-3-yl)-1-methyl-5-oxo-4,5-dihydro-1H-imidazol-4-yl]phenyl propane-1-sulfonate]",395 nM
20,"COc1cc(OS(C)(=O)=O)cc(-c2cccc(C3(c4ccc(OC)c(C)c4)N=C(N)N(C)C3=O)c2)c1 (stereo not drawn) [Example 62, 3′-[2-Amino-4-(4-methoxy-3-methylphenyl)-1-methyl-5-oxo-4,5-dihydro-1H-imidazol-4-yl]-5-methoxybiphenyl-3-ylmethanesulfonate 0.25acetate]",25 nM
21,"COc1cc(Cl)cc(-c2cc(C3(c4cccc(OS(C)(=O)=O)c4)N=C(N)N(C)C3=O)ccc2F)c1 (stereo not drawn) [Example 92, 3-[2-Amino-4-(3′-chloro-6-fluoro-5′-methoxybiphenyl-3-yl)-1-methyl-5-oxo-4,5-dihydro-1H-imidazol-4-yl]phenyl methanesulfonate]",179 nM
